Measured values as given in PMC6261295 (Journal of chromatography. A, 2018).
Structures can show the parent of a compound that is named as a salt.

Key:
[1] = target: T1, Neuraminidase (from Clostridium perfringens, Type V) immobilized on magnetic beads (NA-MBs) (Clostridium perfringens, UniProt A0A0H2YQR1); type: biochemical; details: 40 μM MUNANA, 37 °C, 3 min
[2] = target: T1, Neuraminidase (from Clostridium perfringens, Type V) immobilized on magnetic beads (NA-MBs); type: binding; details: 5.0 mg/mL ethyl acetate extract fraction of Flos Lonicerae, 37 °C, 1 h
[3] = target: T1, Neuraminidase (from Clostridium perfringens, Type V) immobilized on magnetic beads (NA-MBs); experiment: biochemical; details: for inhibition at 50 µM: 0.05 h, read-out: Inhibitory ratio (%)
NA [4] = details: cited from earlier work; for binder / non-binder for NA: known active/inactive compounds for NA
[5] = target: T1, Neuraminidase (from Clostridium perfringens, Type V) immobilized on magnetic beads (NA-MBs); type: biochemical
NA [6] = details: read-out: IC50, literature reported value; cited from earlier work

T1 sequence (A0A0H2YQR1 42-694 limits assumed): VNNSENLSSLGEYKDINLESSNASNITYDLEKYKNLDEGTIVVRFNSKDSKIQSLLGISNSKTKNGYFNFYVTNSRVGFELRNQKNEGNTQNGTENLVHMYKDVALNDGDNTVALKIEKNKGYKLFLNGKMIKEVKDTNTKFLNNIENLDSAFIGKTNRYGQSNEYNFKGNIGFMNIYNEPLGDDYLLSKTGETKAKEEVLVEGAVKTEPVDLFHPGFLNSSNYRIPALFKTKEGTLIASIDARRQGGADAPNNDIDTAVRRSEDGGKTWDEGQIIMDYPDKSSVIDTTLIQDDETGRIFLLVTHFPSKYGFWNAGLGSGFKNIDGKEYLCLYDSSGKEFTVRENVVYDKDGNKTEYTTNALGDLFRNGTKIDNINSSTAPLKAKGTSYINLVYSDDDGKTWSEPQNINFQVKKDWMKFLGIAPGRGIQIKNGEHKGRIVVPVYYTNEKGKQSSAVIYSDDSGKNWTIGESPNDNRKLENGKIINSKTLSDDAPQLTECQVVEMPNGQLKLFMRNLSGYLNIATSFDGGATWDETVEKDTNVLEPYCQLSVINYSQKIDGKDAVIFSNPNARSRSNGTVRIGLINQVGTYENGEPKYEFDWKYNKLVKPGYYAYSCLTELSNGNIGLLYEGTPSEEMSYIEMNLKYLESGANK

O=C(/C=C/c1ccc(O)c(O)c1)OC1CC(O)(C(=O)O)CC(O)C1OC(=O)/C=C/c1ccc(O)c(O)c1 (centres unmarked) [3,4-di-O-caffeoylquinic acid]
IC50 [1]: 68.3 ± 3.1 µM | Retention on NA-MBs in ligand fishing [2]: retained until the final elution steps

O=C(/C=C/c1ccc(O)c(O)c1)OC1CC(O)(C(=O)O)CC(OC(=O)/C=C/c2ccc(O)c(O)c2)C1O (centres unmarked) [3,5-di-O-caffeoylquinic acid]
IC50 [1]: 61.2 ± 1.5 µM | Retention on NA-MBs in ligand fishing [2]: retained until the final elution steps

O=C1CCC[C@@H]2[C@H]3CCC[N@+]4([O-])CCC[C@@H](CN12)[C@@H]34 [Ammothamnine]
Inhibitory ratio (%) ([3]; 50 μM tested compound, 40 μM MUNANA, 5 mg NA-MBs, 37 °C, 3 min, 3% DMSO): < 1%

Nc1cc[nH]c(=O)n1 [Cytosine]
inhibition at 50 µM [3]: < 1%

COc1ccc2c3c1O[C@H]1C[C@@H](O)C=C[C@@]31CCN(C)C2 [Galantamine, reference compound]
inhibition at 50 µM [3]: < 1%

Nc1nc2c(ncn2[C@@H]2O[C@H](CO)[C@@H](O)[C@H]2O)c(=O)[nH]1 [Guanosine]
inhibition at 50 µM [3]: < 1%

O=c1c(O[C@@H]2O[C@H](CO)[C@H](O)[C@H](O)[C@H]2O)c(-c2ccc(O)c(O)c2)oc2cc(O)cc(O)c12 [Hyperoside]
inhibition at 50 µM [3]: 32.3 ± 2.7%

COc1cc(-c2oc3cc(O)cc(O)c3c(=O)c2O)ccc1O [Isorhamnetin]
inhibition at 50 µM [3]: 46.8 ± 5.8%

COc1ccc(-c2oc3cc(O)cc(O)c3c(=O)c2O)cc1 [Kaempferide]
inhibition at 50 µM [3]: 43.6 ± 4.9%

O=c1c(O)c(-c2ccc(O)cc2)oc2cc(O)cc(O)c12 [Kaempferol]
inhibition at 50 µM [3]: 51.2 ± 6.1%

O[C@H]1[C@H]2c3cc4c(cc3CN3CCC(=C[C@@H]1O)[C@H]23)OCO4 [Lycorine]
inhibition at 50 µM [3]: < 1% | binder / non-binder for NA (NA [4]): reported non-binders

CC(=O)N[C@H]1[C@H]([C@H](O)[C@H](O)CO)O[C@@](Oc2ccc3c(C)cc(=O)oc3c2)(C(=O)O)C[C@@H]1O [MUNANA, 2′-(4-methylumbelliferyl)-α-D-N-acetylneuraminic acid sodium salt hydrate]
Km [5]: 46.5 ± 3.68 µM | Km (NA [4]; substrate on NA-immobilized capillary microreactor): 137 ± 10.8 µM

CCOC(=O)C1=C[C@@H](OC(CC)CC)[C@H](NC(C)=O)[C@@H](N)C1 [Oseltamivir]
inhibition at 50 µM [3]: 74.9 ± 3.5% | IC50 (NA [6]): […] | binder / non-binder for NA (NA [4]): known binder

O=C1CCC[C@@H]2[C@H]3CCC[N+]4([O-])CCC[C@@H](CN12)[C@@H]34 (some centres unmarked) [Oxymatrine]
inhibition at 50 µM [3]: < 1%

O=c1c(O)c(-c2ccc(O)c(O)c2)oc2cc(O)cc(O)c12 [Quercetin]
inhibition at 50 µM [3]: 48.1 ± 3.4%

Cc1c[nH]c(=O)[nH]c1=O [Thymine]
inhibition at 50 µM [3]: < 1%

O=c1cc(-c2ccc(O)c(O)c2)oc2cc(O[C@@H]3O[C@H](CO)[C@@H](O)[C@H](O)[C@H]3O)cc(O)c12 [luteolin-7-O-β-D-glucoside]
IC50 [1]: 76.5 ± 3.9 µM | Retention on NA-MBs in ligand fishing [2]: retained until the final elution steps

O=c1cc(-c2ccc(O)c(O)c2)oc2cc(O)cc(O)c12 [luteolin]
Retention on NA-MBs in ligand fishing [2]: retained until the final elution steps

O=C1CCC[C@@H]2[C@H]3CCCN4CCC[C@@H](CN12)[C@@H]34 [matrine]
binder / non-binder for NA (NA [4]): reported non-binders
